Tests used:
mice = test: In vivo delivery of Ffluc mRNA LNP in mice, intravenous administration, luminescence relative to MC3; set-up: species or system mice (female Balb/C); settings: fold change in luminescence intensity relative to MC3; 0.06 mg/kg tail vein; 6 h after injection
Description: The prepared encapsulation solution was applied to mice in the following manner, and its delivery efficiency in mice was tested. Among them, DLin-MC3-DMA (MC3) was a cationic liposome for delivering small nucleic acids that was approved by the FDA for marketing in 2018, which has high nucleic acid drug delivery efficiency and biosafety, and was usually used as the industry gold standard in the screening process of cationic lipids. In the evaluation of mice experiments, the ratio of nucleic acid delivery efficiency normalized to MC3 was greater than 0.1, which was considered to be a cationic lipid with high delivery efficiency.
1. The LNP solution was diluted with 50 mM TBS, pH 7.4 to a concentration of 0.1 mg/mL mRNA.
2. The mice involved in this study were female Balb/C, weighing 18-22 g, 6-8 weeks old, with 5 mice in each group.
3. The dosing solution was kept at 4° C. prior to injection.
4. Each mice received 0.06 mg/kg via tail vein injection.
5. The mice were injected intraperitoneally with 200 μL of 1.5 mg/mL D-luciferin solution 6 h after injection.
6. The in vivo luminescence images of the mice were obtained using the IVIS system (Aniview).
7. The luminescence intensity of each mice was measured using Aniview software.
8. MC3 lipid nanoparticles were used as a positive control. The in vivo efficacy of each cationic lipid tested was recorded as the fold change in luminescence intensity relative to MC3 (ratio normalized to MC3).

[1] = mRNA encapsulation efficiency of LNP by Ribogreen assay; assay type: physicochemical; settings: LNP: 50% cationic lipid, 38.5% cholesterol, 10% DSPC, 1.5% DMG-PEG2000; Ffluc mRNA
Description: (§1) 1. The cationic lipid (50 mg/mL) prepared in the above examples of the present disclosure, cholesterol (20 mg/mL), DSPC (20 mg/mL) and DMG-PEG2000 (20 mg/mL) were dissolved in ethanol, and the solution was placed in a 55° C. metal thermostatic bath as needed to aid dissolution, to obtain a lipid mixture with the following molar composition: 1.5% DMG-PEG2000, 50% cationic lipid, 38.5% cholesterol, and 10% DSPC.
(§2) 2. The mRNA encoding Ffluc was diluted with 10 mM pH 4.0 citrate buffer to prepare a 0.2 mg/mL mRNA solution.
(§3) 3. The lipid mixture prepared in step 1 was mixed with the mRNA solution prepared in step 2 using a syringe pump with a tee at a total flow rate of 40 mL/min.
(§4) 4. The LNP mixture was collected after the three-way mixing and placed in a dialysis bag with a molecular weight cut-off of 100 KDa.
(§5) 5. The LNP mixture was dialyzed overnight against 50 mM Tris-buffered saline, pH 7.4.
(§6) 6. Sieving, and subsequent measurement of the sieved LNP to measure the PDI of the LNP by dynamic laser light scattering; to measure the mRNA encapsulation efficiency and concentration by Ribogreen assay; and to measure the pKa by TNS-α assay.

[2] = LNP size and PDI by dynamic laser light scattering; assay type: physicochemical; settings: LNP: 50% cationic lipid, 38.5% cholesterol, 10% DSPC, 1.5% DMG-PEG2000; Ffluc mRNA
Description: as §1, §2, §3, §4, §5, §6

| SMILES | Encapsulation Rate [1] [%] | PDI [2] | Size (nm) [2] [nm] | In Vivo Efficacy Normalized To Mc3 In Mice (Intravenous Injection) (mice) |
| --- | --- | --- | --- | --- |
| CCCCC/C=C\C/C=C\CCCCCCCC(=O)OCC(COC(=O)C=C(CCCCCCCCCC)CCCCCCCCCC)COC(=O)OCCCCN(C)C (centres unmarked) [CPL-256, 3-((3-decyltridec-2-enoyl)oxy)-2-((((4-(dimethylamino)butyloxy)carbonyl)oxy)methyl)propyl(9Z,12Z)-octadeca-9,12-dienoate] | 95 | 0.1009 | 83.7 | 0.63 |
| CCCCC/C=C\C/C=C\CCCCCCCC(=O)OCC(COC(=O)/C=C(\CCCCC)CCCCCC)COC(=O)OCCCN(CC)CC (centres unmarked) [CPL-266, 3-(((3-(diethylamino)propoxy)carbonyl)oxy)-2-((((E)-3-pentylnon-2-enoyl)oxy)methyl)propyl(9Z,12Z)-octadeca-9,12-dienoate] | 97 | 0.0481 | 68.11 | 0.72 |
| CCCCC/C=C\C/C=C\CCCCCCCC(=O)OCC(COC(=O)/C=C(/CCCCCCCC)CCCCCCCCCC)COC(=O)OCC1CCN(C)C1 (centres unmarked) [CPL-343, 3-((((1-methylpyrrolidin-3-yl)methoxy)carbonyl)oxy)-2-((((Z)-3-octyltridec-2-enoyl)oxy)methyl)propyl(9Z,12Z)-octadeca-9,12-dienoate] | 85 | 0.1584 | 116.3 | 0.44 |

More lines, main results first:

| Encapsulation Rate [1] [%] | PDI [2] | Size (nm) [2] [nm] | SMILES | In Vivo Efficacy Normalized To Mc3 In Mice (Intravenous Injection) (mice) |
| --- | --- | --- | --- | --- |
| 97 | 0.1812 | 78.29 | CCCCC/C=C\C/C=C\CCCCCCCC(=O)OCC(COC(=O)/C=C(\CCCCCCC)CCCCCCCC)COC(=O)OCCCN(CC)CC (centres unmarked) [CPL-274, 3-(((3-(diethylamino)propoxy)carbonyl)oxy)-2-((((E)-3-heptylundec-2-enoyl)oxy)methyl)propyl(9Z,12Z)-octadeca-9,12-dienoate] | 0.37 |
| 97 | 0.1816 | 90.31 | CCCCC/C=C\C/C=C\CCCCCCCC(=O)OCC(COC(=O)/C=C(\CCCCCC)CCCCCCCC)COC(=O)OCCC1CCN(C)CC1 (centres unmarked) [CPL-292, 3-(((E)-3-hexylundec-2-enoyl)oxy)-2-((((2-(1-methylpiperidin-4-yl)ethoxy)carbonyl)oxy)methyl)propyl(9Z,12Z)-octadeca-9,12-dienoate] | 0.27 |
| 95 | 0.1961 | 99.42 | CCCCC/C=C\C/C=C\CCCCCCCC(=O)OCC(COC(=O)/C=C(\CCC)CCCCCC)COC(=O)OCC1CCN(C)C1 (centres unmarked) [CPL-324, 3-((((1-methylpyrrolidin-3-yl)methoxy)carbonyl)oxy)-2-((((E)-3-propylnon-2-enoyl)oxy)methyl)propyl(9Z,12Z)-octadeca-9,12-dienoate] | 0.31 |
| 97 | 0.0596 | 75.57 | CCCCC/C=C\C/C=C\CCCCCCCC(=O)OCC(COC(=O)/C=C(\CCCC)CCCCCCCC)COC(=O)OCC1CCN(C)C1 (centres unmarked) [CPL-329, 3-(((E)-3-butylundec-2-enoyl)oxy)-2-(((((1-methylpyrrolidin-3-yl)methoxy)carbonyl)oxy)methyl)propyl(9Z,12Z)-octadeca-9,12-dienoate] | 0.33 |
| 99 | 0.1084 | 83.4 | CCCCC/C=C\C/C=C\CCCCCCCC(=O)OCC(COC(=O)/C=C(\CCCC)CCCCCCC)COC(=O)OCC1CCN(C)C1 (centres unmarked) [CPL-338, 3-(((E)-3-butyldec-2-enoyl)oxy)-2-(((((1-methylpyrrolidin-3-yl)methoxy)carbonyl)oxy)methyl)propyl(9Z,12Z)-octadeca-9,12-dienoate] | 0.52 |

Source: patent US20250214925A1, “CATIONIC LIPID, LIPOSOME, LIPID NANOPARTICLE, AND USE” (CARCELL BIOPHARMA LTD., priority 2022, published 2025)
